Seven test systems from the supplement of paper PMC6045584 can be followed below.

± gives the standard deviation of the averaged measurements.

Compound in experiment [1]: Cc1nc(Nc2n[nH]c3c2CN(C(=O)N[C@H](CN(C)C)c2ccccc2)C3(C)C)c2sccc2n1
The experiment in a line: surviving fraction relative to DMSO-only wells; higher = less growth inhibition. The following applies: exposure time: 5 days. The method in brief: (§1)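 Log-phase tumour cells were seeded at 250–500 per well in 384-well plates and, from 24 hours after seeding, exposed continuously for five days to inhibitors at 0.5, 1, 5, 10, 50, 100, 500 and 1000 nM. Surviving fraction is CellTiter-Glo luminescence normalised to the median of DMSO-only wells. Luminescence was measured after 10 minutes at room temperature, and only lines screened three times with replicate Pearson r >0.7 and median Z' >0.3 were kept.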

Compound in a further experiment: O=C(O)CC[C@H]1CC[C@@](c2cc(F)ccc2F)(S(=O)(=O)c2ccc(Cl)cc2)CC1 [MK0752]
The description is as above. The following applies: exposure time: 5 days. The method in brief:
as §1

Regarding G292 BONE, the surviving fraction turned out to be 0.782 ± 0.028 in experiment [1] (0.5 nM); 0.642 ± 0.029 in experiment [1] (1 nM); 0.42 ± 0.0074 in experiment [1] (5 nM); 0.376 ± 0.004 in experiment [1] (10 nM); 0.324 ± 0.014 in experiment [1] (50 nM); 0.287 ± 0.012 in experiment [1] (100 nM). For the same test system, the surviving fraction was 0.166 ± 0.0052 in experiment [1] (500 nM); 0.0753 ± 0.0032 in experiment [1] (1000 nM); 0.974 ± 0.015 with MK0752 (0.5 nM); 1.03 ± 0.053 with MK0752 (1 nM); 1.05 ± 0.033 with MK0752 (5 nM); 1.05 ± 0.013 in the experiment with MK0752 (10 nM). Moreover, the surviving fraction with MK0752 (50 nM) worked out at 1.01 ± 0.018; with MK0752 (100 nM), 0.989 ± 0.019; with MK0752 (500 nM) it was 0.914 ± 0.037; in the experiment with MK0752 (1000 nM) it was 0.86 ± 0.037.
Turning to LNCAP PROSTATE, the surviving fraction amounted to 0.773 ± 0.021 in experiment [1] (0.5 nM); 0.632 ± 0.054 in experiment [1] (1 nM); 0.215 ± 0.0067 in experiment [1] (5 nM); 0.196 ± 0.019 in experiment [1] (10 nM); 0.098 ± 0.017 in experiment [1] (50 nM); 0.097 ± 0.012 in experiment [1] (100 nM). Also, the surviving fraction was found to be 0.0357 ± 0.0032 in experiment [1] (500 nM); 0.0227 ± 0.0029 in experiment [1] (1000 nM); 0.936 ± 0.14 in the experiment with MK0752 (0.5 nM); 0.927 ± 0.12 in the experiment with MK0752 (1 nM); 1.03 ± 0.26 in the experiment with MK0752 (5 nM); 0.887 ± 0.09 with MK0752 (10 nM). Also, the surviving fraction stood at 1.01 ± 0.098 in the experiment with MK0752 (50 nM), 1.02 ± 0.074 in the experiment with MK0752 (100 nM), 1.04 ± 0.21 with MK0752 (500 nM) and 1.01 ± 0.12 with MK0752 (1000 nM).
As for SCC003 HEADNECK, the surviving fraction in experiment [1] (0.5 nM) was 0.993 ± 0.094; in experiment [1] (1 nM), 1.05 ± 0.094; in experiment [1] (5 nM) it was 0.61 ± 0.043; in experiment [1] (10 nM), 0.418 ± 0.022; in experiment [1] (50 nM) it was 0.278 ± 0.029; in experiment [1] (100 nM), 0.275 ± 0.028. For the same test system, the surviving fraction was 0.227 ± 0.021 in experiment [1] (500 nM); 0.183 ± 0.012 in experiment [1] (1000 nM); 1.19 ± 0.02 in the experiment with MK0752 (0.5 nM); 1.12 ± 0.15 with MK0752 (1 nM); 1.14 ± 0.045 in the experiment with MK0752 (5 nM); 1.13 ± 0.055 with MK0752 (10 nM). The surviving fraction with MK0752 (50 nM) came out at 1.19 ± 0.12; in the experiment with MK0752 (100 nM), 1.24 ± 0.11; with MK0752 (500 nM), 1.19 ± 0.13; with MK0752 (1000 nM), 1.2 ± 0.039.
Turning to HUO3N1 BONE, the surviving fraction in experiment [1] (0.5 nM) turned out to be 0.971 ± 0.018; in experiment [1] (1 nM) it was 0.942 ± 0.034; in experiment [1] (5 nM) it was 0.853 ± 0.011; in experiment [1] (10 nM), 0.781 ± 0.024; in experiment [1] (50 nM), 0.683 ± 0.015; in experiment [1] (100 nM), 0.625 ± 0.038. In addition, the surviving fraction in experiment [1] (500 nM) is 0.462 ± 0.029; in experiment [1] (1000 nM), 0.407 ± 0.0059; in the experiment with MK0752 (0.5 nM), 1.02 ± 0.023; with MK0752 (1 nM), 1.03 ± 0.021; in the experiment with MK0752 (5 nM), 1.051 ± 0.0083; in the experiment with MK0752 (10 nM) it was 1.08 ± 0.042. The surviving fraction with MK0752 (50 nM) worked out at 1.07 ± 0.042; with MK0752 (100 nM) it was 1.08 ± 0.052; in the experiment with MK0752 (500 nM) it was 1.01 ± 0.02; in the experiment with MK0752 (1000 nM) it was 0.9563 ± 0.0042.
Turning to C33A CERVIX, the surviving fraction in experiment [1] (0.5 nM) was determined as 0.67 ± 0.035; in experiment [1] (1 nM), 0.62 ± 0.016; in experiment [1] (5 nM) it was 0.298 ± 0.049; in experiment [1] (10 nM), 0.26 ± 0.024; in experiment [1] (50 nM), 0.221 ± 0.011; in experiment [1] (100 nM), 0.214 ± 0.024. Further, the surviving fraction turned out to be 0.146 ± 0.0049 in experiment [1] (500 nM); 0.0663 ± 0.009 in experiment [1] (1000 nM); 1.12 ± 0.13 in the experiment with MK0752 (0.5 nM); 1.11 ± 0.08 with MK0752 (1 nM); 1.06 ± 0.14 with MK0752 (5 nM); 1.19 ± 0.083 with MK0752 (10 nM). In addition, the surviving fraction with MK0752 (50 nM) turned out to be 1.09 ± 0.066; with MK0752 (100 nM) it was 1.19 ± 0.18; with MK0752 (500 nM), 1.08 ± 0.16; with MK0752 (1000 nM) it was 1.13 ± 0.1.
On to HCC1395 BREAST, for which the surviving fraction was 0.927 ± 0.18 in experiment [1] (0.5 nM); 0.984 ± 0.06 in experiment [1] (1 nM); 1.06 ± 0.013 in experiment [1] (5 nM); 1.11 ± 0.13 in experiment [1] (10 nM); 0.964 ± 0.14 in experiment [1] (50 nM); 1.16 ± 0.26 in experiment [1] (100 nM). Also, the surviving fraction in experiment [1] (500 nM) is 0.964 ± 0.15; in experiment [1] (1000 nM) it was 0.961 ± 0.16; with MK0752 (0.5 nM) it was 1.09 ± 0.017; with MK0752 (1 nM) it was 0.987 ± 0.16; in the experiment with MK0752 (5 nM), 1.08 ± 0.036; with MK0752 (10 nM), 1.1 ± 0.099. For the same test system, the surviving fraction stood at 1.06 ± 0.011 in the experiment with MK0752 (50 nM), 1.06 ± 0.15 with MK0752 (100 nM), 0.975 ± 0.028 in the experiment with MK0752 (500 nM) and 0.925 ± 0.12 in the experiment with MK0752 (1000 nM).
As to CAL72 BONE, the surviving fraction was found to be 1.04 ± 0.066 in experiment [1] (0.5 nM); 0.993 ± 0.032 in experiment [1] (1 nM); 0.691 ± 0.061 in experiment [1] (5 nM); 0.556 ± 0.058 in experiment [1] (10 nM); 0.435 ± 0.025 in experiment [1] (50 nM); 0.399 ± 0.011 in experiment [1] (100 nM). Moreover, the surviving fraction in experiment [1] (500 nM) is 0.194 ± 0.023; in experiment [1] (1000 nM), 0.0947 ± 0.0081; with MK0752 (0.5 nM), 1.04 ± 0.025; in the experiment with MK0752 (1 nM), 1.1 ± 0.043; with MK0752 (5 nM), 1.084 ± 0.0046; in the experiment with MK0752 (10 nM), 1.09 ± 0.021. For the same test system, the surviving fraction in the experiment with MK0752 (50 nM) was found to be 1.11 ± 0.018; with MK0752 (100 nM), 1.14 ± 0.034; in the experiment with MK0752 (500 nM), 1.102 ± 0.011; in the experiment with MK0752 (1000 nM), 1.12 ± 0.04.
